Molecules are shown by their SMILES.

The assay deals with T1, human orexin-2 (hOX2) receptor (Homo sapiens, UniProt O43614).
T1 construct: expressed in transfected cells
T1 sequence (O43614 1-444): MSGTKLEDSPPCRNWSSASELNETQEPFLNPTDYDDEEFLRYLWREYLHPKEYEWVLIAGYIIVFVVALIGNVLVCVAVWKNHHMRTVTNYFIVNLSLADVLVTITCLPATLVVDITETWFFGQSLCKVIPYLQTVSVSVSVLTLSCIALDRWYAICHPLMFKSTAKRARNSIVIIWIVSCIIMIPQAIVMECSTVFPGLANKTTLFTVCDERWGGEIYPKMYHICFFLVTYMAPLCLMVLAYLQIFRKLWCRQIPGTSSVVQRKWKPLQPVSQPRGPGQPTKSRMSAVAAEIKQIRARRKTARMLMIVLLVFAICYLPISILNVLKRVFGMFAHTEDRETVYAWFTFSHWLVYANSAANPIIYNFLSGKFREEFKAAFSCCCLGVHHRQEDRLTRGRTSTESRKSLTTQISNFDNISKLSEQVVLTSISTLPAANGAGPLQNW
As to the kind of experiment: Intracellular Ca2+ mobilization assay (FLIPR), CHO(dHFr-) cells expressing hOX2, orexin-A as agonist. Format: cell-based. The settings on record: antagonist Kb=IC50/(1+[A]/EC50); orexin-A at EC80; CHO(dHFr-)-OX2R cells; antagonist applied 25 min before agonist. The procedure, abridged:
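Cells loaded with 4 μM Fluo-4 AM (1 h, 37° C) in HBSS/20 mM HEPES/2.5 mM probenecid; antagonists (11 concentrations, 0.0001-10 μM) added 25 min at 37° C before orexin-A at its daily-determined EC80. Peak fluorescence minus basal fitted to Hill equation for IC50; Kb=IC50/(1+[A]/EC50).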
In turn, `Cc1noc(-c2ccccc2C(=O)N2CC[C@@H](Nc3cnc4cc(Cl)ccc4n3)C2)n1` [Example 178, [(R)-3-(6-Chloro-quinoxalin-2-ylamino)-pyrrolidin-1-yl]-[2-(3-methyl-[1,2,4]oxadiazol-5-yl)-phenyl]-methanone] had a Kb of 0.0244 µM. As for `Cc1nc(C(=O)N2CC[C@@H](Nc3cnc4cc(Cl)ccc4n3)C2)c(-c2ccccc2)s1` [Example 181, [(R)-3-(6-Chloro-quinoxalin-2-ylamino)-pyrrolidin-1-yl]-(2-methyl-5-phenyl-thiazol-4-yl)-methanone], the Kb was 0.028 µM. As for `O=C(c1ccccc1C(F)(F)F)N1CC[C@@H](Nc2cnc3ccccc3n2)C1` [Example 182, [(R)-3-(Quinoxalin-2-ylamino)-pyrrolidin-1-yl]-(2-trifluoromethyl-phenyl)-methanone], the figure is 0.027 µM; as for `O=C(c1ccccc1OC(F)(F)F)N1CC[C@@H](Nc2cnc3ccccc3n2)C1` [Example 183, [(R)-3-(Quinoxalin-2-ylamino)-pyrrolidin-1-yl]-(2-trifluoromethoxy-phenyl)-methanone], 0.02 µM.

On to `O=C(c1ccccc1OC(F)(F)C(F)F)N1CC[C@@H](Nc2cnc3ccccc3n2)C1` [Example 184, [(R)-3-(Quinoxalin-2-ylamino)-pyrrolidin-1-yl]-[2-(1,1,2,2-tetrafluoro-ethoxy)-phenyl]-methanone], for which the Kb came to 0.0021 µM.

Molecule `Cc1ccc(C(F)(F)F)c(C(=O)N2CC[C@@H](Nc3cnc4ccccc4n3)C2)c1` [Example 185, (5-Methyl-2-trifluoromethyl-phenyl)-[(R)-3-(quinoxalin-2-ylamino)-pyrrolidin-1-yl]-methanone] came in with a Kb of 0.0075 µM. In the case of `Cc1nc(C(=O)N2CC[C@@H](Nc3cnc4ccccc4n3)C2)c(-c2ccccc2)s1` [Example 189, (2-Methyl-5-phenyl-thiazol-4-yl)-[(R)-3-(quinoxalin-2-ylamino)-pyrrolidin-1-yl]-methanone] it was 0.028 µM; in that of `O=C(c1ccccc1OC(F)(F)C(F)F)N1CC[C@@H](Nc2cnc3ccc(Cl)cc3n2)C1` [Example 192, [(R)-3-(7-Chloro-quinoxalin-2-ylamino)-pyrrolidin-1-yl]-[2-(1,1,2,2-tetrafluoro-ethoxy)-phenyl]-methanone], 0.0324 µM; in that of `Cc1ccc(C(F)(F)F)c(C(=O)N2CC[C@@H](Nc3ccnc(-c4ccccc4)n3)C2)c1` [Example 200, (5-Methyl-2-trifluoromethyl-phenyl)-[(R)-3-(2-phenyl-pyrimidin-4-ylamino)-pyrrolidin-1-yl]-methanone], 0.0073 µM. As for `Cc1ccc(C(F)(F)F)c(C(=O)N2CC[C@@H](Nc3nc4cc(F)c(F)cc4s3)C2)c1` [Example 202, [(R)-3-(5,6-Difluoro-benzothiazol-2-ylamino)-pyrrolidin-1-yl]-(5-methyl-2-trifluoromethyl-phenyl)-methanone], the figure is 0.0046 µM; as for `Cc1ccc(C(F)(F)F)c(C(=O)N2CC[C@@H](Nc3nc4c(Cl)cccc4s3)C2)c1` [Example 203], 0.008 µM; as for `Cc1ccc(C(F)(F)F)c(C(=O)N2CC[C@@H](Nc3cnc4cc(C(C)(C)C)ccc4n3)C2)c1` [Example 204], 0.0052 µM. As for `Cc1ccc(C(F)(F)F)c(C(=O)N2CC[C@@H](Nc3cnc4cc(F)ccc4n3)C2)c1` [Example 207], the figure is 0.0046 µM; as for `Cc1ccc(C(F)(F)F)c(C(=O)N2CC[C@@H](Nc3cnc4cc(C)c(Cl)cc4n3)C2)c1` [Example 212], 0.0086 µM; as for `Cc1ccc(C(F)(F)F)c(C(=O)N2CC[C@@H](Nc3cnc4cc(Cl)c(C)cc4n3)C2)c1` [Example 213], 0.0371 µM.

Values taken from patent US7897627B2, “Heteroaryl derivatives as orexin receptor antagonists” (Hoffmann-La Roche Inc., priority 2007, dated 2011).
